{"source": "patent US20260048151A1", "about": "“HEMICYANINE PUSH-PULL DYES BASED ON CHROMENE ELECTRON DONORS” (UNIVERSITY OF CONNECTICUT, priority 2022, published 2026)", "key": {"intact mouse hearts": {"tested_on": "intact mouse hearts", "assay": "Optical mapping of cardiac electrical activity in isolated mouse hearts", "protocol": "All animal handling and procedures were performed in accordance with the guidelines from Directive 2010/63/EU of the European Parliament on the protection of animals used for scientific purposes. The experimental protocol was approved by the Italian Ministry of Health (protocol number 944/2018-PR). Transgenic mice (ChR2-mhc6-cre+) with cardiomyocyte-specific expression of Channelrhodopsin-2 (ChR2, H134R variant) were generated and employed in this study. Wild-type mice (C57BL/6J) and ChR2-mhc6-cre+ mice (6 months old) were heparinized (0.1 mL at 5000 units/mL) and anesthetized by inhaled isoflurane (5%). The excised heart was immediately bathed in Krebs-Henseleit (KH) solution and cannulated through the aorta. The KH buffer contained (in mM): 120 NaCl, 5 KCl, 2 MgS2 O4-7H2O, 20 NaHCO3, 1.2 NaH2PO4—H2O, 1.8 CaCl2 and 10 glucose, pH 7.4 when equilibrated with carbogen. Cardiac contraction was inhibited during the entire experiment with 1 μM blebbistatin (Enzo Life Sciences, Farmingdale, NY, USA) in the solution. The cannulated heart was perfused through the aorta (using a horizontal-Langendorff perfusion system) with the KH solution and then transferred to a custom-built optical mapping chamber at a constant flow of 2.5 mL/min at (36±0.5)° C. Two platinum electrodes were placed below the heart for monitoring cardiac electrical activity via electrocardiogram (ECG). 1 mL of perfusion solution containing the voltage sensitive dye (VSD; ElectroFluor730p: 10 μM; di-4-ANBDQPQ: 6 μg/mL) was bolus injected into the aorta. All the experiments were performed at (36±0.5° C.) within 1 hour after dye loading to avoid potential re-distribution of the dye and accumulation of phototoxic by-products.\nOptical mapping was performed using a custom-made mesoscope. Stained mouse hearts were illuminated in a wide-field configuration using a 2× objective (TL2x-SAP, Thorlabs, Newton, NJ, USA) and employing four different LED operating at a wavelength centred at 730 nm, 625 nm, 590 nm and 530 nm (M730L5, M625L3, M590L4 and M530L4 Thorlabs, Newton, NJ, USA) followed by excitation band-pass filters at 730/39 nm, 640/40 nm, 589/15 nm (FF01-730/39-25, FF01-640/40-25, FF01-589/15-25, Semrock) and 530/43 nm (MF530-43, Thorlabs) respectively. di-4-ANBDQPQ stained hearts were excited at 625 nm (0.875 mW/mm^2) and a dichroic beam splitter (FF685-Di02-25×36, Semrock) followed by a band-pass filter at 775/140 nm (FF01-775/140-25, Semrock) was used for collecting the emitted fluorescent signal. […] Light intensities were measured at sample site using a photodiode sensor (PD300-3W, Ophir Optronics, Jerusalem, Israel). […]"}, "[1]": {"assay": "Voltage sensitivity on voltage-clamped hemispherical lipid bilayer", "details": "long pass emission filter", "text": "It is known that optimal voltage sensitivity can be obtained by measuring the compounds on a voltage-clamped hemispherical bilayer apparatus. The apparatus can include a patch-clamp amplifier, such as a HEKA EPC-8 patch-clamp amplifier. Measurements can be obtained by stepping the membrane potential between two different potentials for a set time lapse. such as, for example, −110 and −60 mV every 10 ms.\nTesting VSDs in a voltage-clamped hemispherical lipid bilayer allows one to determine the sensitivity of the VSDs as a function of excitation wavelength. This system has a Teflon tube filled with KCl and is immersed in a KCl solution in a cuvette. A lipid bubble is blown at the tip of the tube and spontaneously forms a bilayer membrane. The VSD to be tested is introduced on one side of the bilayer, usually in the cuvette. Electrodes in the tube and in the cuvette allow the imposition of a voltage across the membrane and a tungsten lamp coupled to a monochromator allows excitation wavelength dependence of the fluorescence response to voltage steps to be determined. This screening approach has allows for the comparison of the efficacy of newly developed VSDs in a well-controlled, consistent manner and to also determine excitation and emission wavelengths with optimal.\nVoltage sensitivities of 2a as a function of voltage is shown in FIG. 3A for excitation at 730 nm and 570 nm. The voltage response is linear over the range of −100 mV to +100 mV; 570 nm is slightly to the blue of the isosbestic point, accounting for the weak but inverted sensitivity at this wavelength. […] This opposite polarity at the blue and red edges underlies the ability to use electrochromic hemicyanine dyes for dual-wavelength ratio imaging. The precise location of the isosbestic point in the excitation wavelength depends on the emission filter used because the emission spectrum is also voltage dependent for hemicyanine dyes.\nThe magnitude and wavelengths of the optimal voltage sensitivities of all the VSDs on the voltage-clamped hemispherical bilayer are included in the third column of Table 1."}}, "note": "Values joined by “and” are separate entries in the source; they are usually repeats but may differ in a detail not shown here. Equal values may be shown once."}
{"smiles": "CCCCCCN(CCCCCC)c1ccc2c(c1)OCC(/C=C/c1c(F)c[n+](CCC[N+](CC)(CC)CC)c3ccccc13)=C2.[Br-].[Br-]", "note": "[2c]", "values": [{"measurement": "sensitivity to an AP (APA), % decrease in fluorescence at the peak of an AP", "setting": "intact mouse hearts; 730 nm excitation, compared with di-4-ANBDQPQ", "result": "higher than that of di-4-ANBDQPQ"}, {"measurement": "differences in AP kinetics (APRS, APD50, APD70, APD90)", "setting": "intact mouse hearts; compared with di-4-ANBDQPQ, student's t-test, listed as ElectroFluor730p", "result": "no statistically significant differences in AP parameters excepting AP Amplitude"}, {"measurement": "inversion point (isosbestic point) of sensitivity", "setting": "intact mouse hearts; excitation 730, 590, 530 nm, exponential fit, listed as ElectroFluor730p", "result": "≈ 571 nm and ~571 nm"}, {"measurement": "pharmacological effects of the VSD", "setting": "intact mouse hearts; isolated mouse hearts", "result": "no measurable pharmacological effects"}, {"measurement": "Ex (excitation wavelength of optimal voltage sensitivity)", "setting": "[1]", "result": 730, "unit": "nm"}, {"measurement": "Voltage Sensitivity ΔF/F per 100 mV", "setting": "[1]; magnitude at optimal Ex/Em", "result": 12, "unit": "%"}]}
